# According to patent EP1142881A1, “POLY(ADP-RIBOSE) POLYMERASE INHIBITORS CONSISTING OF PYRIMIDINE DERIVATIVES” (Meiji Seika Kaisha, Ltd., priority 1999, dated 2000):
# Target: T1, PARP (Rattus norvegicus, UniProt P27008)
# T1 construct: Nucleus obtained by centrifugation was extracted with 0.4 M NaCl and the resulting soluble fraction was used as a source of PARP enzyme; from tissue; host or cells: Wistar rat forebrain, nuclear 0.4 M NaCl soluble fraction
# Assay: Measurement of PARP enzyme activity
# Assay type: biochemical, Wistar rats
# Conditions: soluble nuclear fraction of Wistar rat forebrain as enzyme source; 250 µM NAD, 32P-NAD; 37°C for 30 minutes; 6 concentrations; read-out: PARP inhibitory activity IC50
# Experimental: Test method: The forebrain was collected from Wistar rats and homogenized. Nucleus obtained by centrifugation was extracted with 0.4 M NaCl and the resulting soluble fraction was used as a source of PARP enzyme source. […] Incubation was carried out at 37°C for 30 minutes, and then the reaction was stopped with 20%trichloroacetic acid. The acid-insoluble fraction produced above was adsorbed to a GF/B filter, and the filter was washed several times, and then radioactivity on the filter was measured by using a liquid scintillation counter. The PARP activity was measured by subtracting radioactivity as a blank value of a sample not added with the enzyme source. […]
# T1 sequence (P27008 whole entry): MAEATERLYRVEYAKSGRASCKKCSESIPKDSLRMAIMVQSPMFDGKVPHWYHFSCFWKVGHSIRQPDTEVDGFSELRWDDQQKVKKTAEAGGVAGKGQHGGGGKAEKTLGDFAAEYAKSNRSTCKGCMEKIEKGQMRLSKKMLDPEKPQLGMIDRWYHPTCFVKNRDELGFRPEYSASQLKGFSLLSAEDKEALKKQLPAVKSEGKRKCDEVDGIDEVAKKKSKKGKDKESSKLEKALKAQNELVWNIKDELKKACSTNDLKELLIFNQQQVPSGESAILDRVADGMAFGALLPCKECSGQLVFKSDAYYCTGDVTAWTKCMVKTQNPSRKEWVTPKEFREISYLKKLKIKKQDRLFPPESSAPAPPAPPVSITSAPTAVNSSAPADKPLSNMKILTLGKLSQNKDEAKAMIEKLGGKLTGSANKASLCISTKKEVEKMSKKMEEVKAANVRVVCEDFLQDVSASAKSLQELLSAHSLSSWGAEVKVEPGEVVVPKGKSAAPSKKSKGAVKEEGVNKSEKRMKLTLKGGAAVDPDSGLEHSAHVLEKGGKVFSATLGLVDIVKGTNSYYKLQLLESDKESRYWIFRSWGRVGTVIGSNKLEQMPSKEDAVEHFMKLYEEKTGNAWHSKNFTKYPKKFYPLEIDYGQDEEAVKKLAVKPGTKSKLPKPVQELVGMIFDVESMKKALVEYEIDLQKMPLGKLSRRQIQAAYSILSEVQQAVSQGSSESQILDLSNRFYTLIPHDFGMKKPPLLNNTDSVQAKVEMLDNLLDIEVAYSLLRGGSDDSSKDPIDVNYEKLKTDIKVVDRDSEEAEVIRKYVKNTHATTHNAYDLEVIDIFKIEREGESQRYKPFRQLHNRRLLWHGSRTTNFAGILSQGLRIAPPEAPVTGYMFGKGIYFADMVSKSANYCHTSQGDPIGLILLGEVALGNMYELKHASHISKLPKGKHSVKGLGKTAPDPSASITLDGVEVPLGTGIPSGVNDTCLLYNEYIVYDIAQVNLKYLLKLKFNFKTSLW
row,SMILES,IC50
1,"C=C1CSCc2c1nc(C)[nH]c2=O [Example 20, 2-Methyl-8-methylene-3,5,7,8-tetrahydrothiopyrano[4,3-d]pyrimidin-4-one]",250 nM
2,"O=c1[nH]c(-c2ccccc2)nc2c1CSCC2 [Example 4, 2-Phenyl-3,5,7,8-tetrahydrothiopyrano[4,3-d]pyrimidin-4-one]",410 nM
3,"O=c1[nH]cnc2c1CSCC2 [Example 3, 3,5,7,8-Tetrahydrothiopyrano[4,3-d]pyrimidin-4-one]",1460 nM

# Next, values leading:
row,IC50,SMILES
1,440 nM,"COCC=C1CSCc2c1nc(C)[nH]c2=O [Example 39, 8-(2-Methoxyethylidene)-2-methyl-3,5,7,8-tetrahydrothiopyrano-[4,3-d]pyrimidin-4-one]"
2,350 nM,"C=C1CCCc2c1nc(C)[nH]c2=O [Example 21(A), 2-Methyl-8-methylene-5,6,7,8-tetrahydro-3H-quinazolin-4-one]"
